Measurements reported in paper PMC9664485 (European journal of medicinal chemistry, 2022).
Where “and” joins values, the source holds several entries; their conditions need not be identical. Identical values can stand only once.

Target: T1, recombinant human Wip1 (1–420) (Homo sapiens, UniProt O15297)
T1 sequence (O15297 1-420): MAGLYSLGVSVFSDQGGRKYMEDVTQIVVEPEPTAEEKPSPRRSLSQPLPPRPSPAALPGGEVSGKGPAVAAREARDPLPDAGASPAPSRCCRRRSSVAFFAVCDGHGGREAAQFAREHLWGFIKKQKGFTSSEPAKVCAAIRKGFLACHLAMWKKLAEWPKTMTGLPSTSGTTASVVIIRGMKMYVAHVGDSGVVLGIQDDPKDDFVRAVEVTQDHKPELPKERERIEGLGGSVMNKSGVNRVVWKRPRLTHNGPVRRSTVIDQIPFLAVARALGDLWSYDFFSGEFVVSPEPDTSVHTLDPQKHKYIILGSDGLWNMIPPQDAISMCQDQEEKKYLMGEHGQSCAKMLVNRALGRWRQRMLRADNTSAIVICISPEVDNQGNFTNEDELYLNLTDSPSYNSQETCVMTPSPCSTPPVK
Assay: Wip1 phosphatase activity inhibition assay
Assay type: biochemical

[1] = variable slope logistic fit of Wip1 inhibition curve
[2] = fixed-slope logistic curve, which assumes the Hill coefficient = 1 (footnote a)

Row | Compound | Hill coefficient [n] [1] | Wip1 inhibitory activity (in words) | further results
1 | O=C(Nc1cccc(OP(=O)(O)O)c1)c1ccc(NCc2ccc(-c3cccc(Cl)c3)cc2)c(CC2CCCCC2)c1 [Compound 22k, 3-(4-(((3’-chloro-[1,1’-biphenyl]-4-yl)methyl)amino)-3-(cyclohexylmethyl)benzamido)phenyl dihydrogen phosphate] | 1.3 ± 0.2 |  | 
2 | O=C(Nc1cccc(OP(=O)(O)O)c1)c1ccc(NCc2cc3ccccc3o2)c(CC2CCCCC2)c1 [Compound 22m, 3-(4-((benzofuran-2-ylmethyl)amino)-3-(cyclohexylmethyl)benzamido)phenyl dihydrogen phosphate] | 1.5 ± 0.1 |  | 
3 | Nc1ccc(C(=O)Nc2cccc(OP(=O)(O)O)c2)cc1CC1CCCCC1 [Compound 22a, 3-(4-amino-3-(cyclohexylmethyl)benzamido)phenyl dihydrogen phosphate] | 1.2 ± 0.10 |  | 
4 | O=C(Nc1cccc(OP(=O)(O)O)c1)c1ccc(NCc2cccnc2)c(CC2CCCCC2)c1 [Compound 22n, 3-(3-(cyclohexylmethyl)-4-((pyridin-3-ylmethyl)amino)benzamido)phenyl dihydrogen phosphate] | 1.6 ± 0.2 |  | fold less active (Wip1 IC50) (compared with 22m): 5 fold
5 | O=C(Nc1cccc(OP(=O)(O)O)c1)c1ccc(NCCCc2ccccc2)c(CC2CCCCC2)c1 [Compound 22c, 3-(3-(cyclohexylmethyl)-4-((3-phenylpropyl)amino)benzamido)phenyl dihydrogen phosphate] |  |  | IC50: 165 µM; Hill coefficient [n] [2]: 1^a
6 | O=C(Nc1cccc(OP(=O)(O)O)c1)c1ccc(NCc2ccc(F)cc2)c(Cc2ccccc2)c1 [Compound 29a, 3-(3-benzyl-4-((4-fluorobenzyl)amino)benzamido)phenyl dihydrogen phosphate] | 1.7 ± 0.1 |  | fold loss in activity (Wip1 IC50) (compared with 22g): 3 fold
7 | CCCCC(CCCC)CNc1ccc(C(=O)Nc2cccc(OP(=O)(O)O)c2)cc1CC1CCCCC1 [Compound 22b, 3-(4-((2-butylhexyl)amino)-3-(cyclohexylmethyl)benzamido)phenyl dihydrogen phosphate] |  |  | Hill coefficient [n] [2]: 1^a
8 | O=C(O)c1cccc(CNc2ccccc2CC2CCCCC2)c1 [Compound 14, 3-(((2-(cyclohexylmethyl)phenyl)amino)methyl)benzoic acid] | 1.9 ± 0.4 | modest inhibition | 
9 | COC(=O)c1ccc(NCc2cccc(C(=O)O)c2)c(CC2CCCCC2)c1 [Compound 15, 3-(((2-(cyclohexylmethyl)-4-(methoxycarbonyl)phenyl)amino)methyl)benzoic acid] | 2.8 ± 0.5 |  | 
10 | O=C(O)c1cccc(CNc2ccccc2CCC2CCCCC2)c1 [Compound 16, 3-(((2-(2-cyclohexylethyl)phenyl)amino)methyl)benzoic acid] |  | modest inhibition | 
11 | Nc1ccccc1CC1CCCCC1 [Compound 10, 2-(cyclohexylmethyl)aniline] |  | did not have significant inhibitory activity | 
12 | O=C(Nc1ccc2c(c1)OCO2)c1cccc(CNc2ccc(C(=O)Nc3cccc(OP(=O)(O)O)c3)cc2CC2CCCCC2)c1 [Compound 40e, 3-(4-((3-(benzo[d][1,3]dioxol-5-ylcarbamoyl)benzyl)amino)-3-(cyclohexylmethyl)benzamido)phenyl dihydrogen phosphate] | 2.9 ± 0.1 |  | 
13 | O=C(Nc1cccc(Cl)c1)c1cccc(CNc2ccc(C(=O)Nc3cccc(O)c3)cc2CCC2CCCCC2)c1 [Compound 38c, 4-((3-((3-chlorophenyl)carbamoyl)benzyl)amino)-3-(2-cyclohexylethyl)-N-(3-hydroxyphenyl)benzamide] |  | considerable drop in activity | Hill coefficient [n] [2]: 1^a
14 | O=C(Nc1cccc(Cl)c1)c1ccc(CNc2ccc(C(=O)Nc3cccc(OP(=O)(O)O)c3)cc2CC2CCCCC2)cc1 [Compound 40a, 3-(4-((4-((3-chlorophenyl)carbamoyl)benzyl)amino)-3-(cyclohexylmethyl)benzamido)phenyl dihydrogen phosphate] | 1.9 ± 0.2 |  | 
15 | O=C(Nc1cccc(OP(=O)(O)O)c1)c1ccc(NCc2cccc(F)c2)c(CC2CCCCC2)c1 [Compound 22f, 3-(3-(cyclohexylmethyl)-4-((3-fluorobenzyl)amino)benzamido)phenyl dihydrogen phosphate] | 3.4 ± 0.4 |  | 
16 | Nc1ccccc1CCC1CCCCC1 [Compound 12, 2-(2-cyclohexylethyl)aniline] |  | did not have significant inhibitory activity | 
17 | O=C(Nc1cccc(Cl)c1)c1cccc(CNc2ccc(C(=O)Nc3cccc(OP(=O)(O)O)c3)cc2CCC2CCCCC2)c1 [Compound 40c, 3-(4-((3-((3-chlorophenyl)carbamoyl)benzyl)amino)-3-(2-cyclohexylethyl)benzamido)phenyl dihydrogen phosphate] | 1.0 ± 0.1 |  | 
18 | O=C(Nc1ccc(OP(=O)(O)O)cc1)c1ccc(NCc2ccc(F)cc2)c(CC2CCCCC2)c1 [Compound 32a, 4-(3-(cyclohexylmethyl)-4-((4-fluorobenzyl)amino)benzamido)phenyl dihydrogen phosphate] | 3.4 ± 0.4 | comparable inhibitory activity with the parent compound 22g | 
19 | O=C(Nc1cccc(OP(=O)(O)O)c1)c1ccc(NCc2ccc(F)cc2)cc1 [Compound 29b, 3-(4-((4-fluorobenzyl)amino)benzamido)phenyl dihydrogen phosphate] |  | almost complete loss of inhibitory activity | Hill coefficient [n] [2]: 1^a
20 | O=C(Nc1cccc(OP(=O)(O)O)c1)c1ccc(NCc2ccc(F)cc2)c(CC2CCCCC2)c1 [Compound 22g, 3-(3-(cyclohexylmethyl)-4-((4-fluorobenzyl)amino)benzamido)phenyl dihydrogen phosphate] | 3 and 3.0 ± 0.4 |  | 
21 | O=C(Nc1cccc(OP(=O)(O)O)c1)c1ccc(NCc2ccc3ccccc3c2)c(CC2CCCCC2)c1 [Compound 22h, 3-(3-(cyclohexylmethyl)-4-((naphthalen-2-ylmethyl)amino)benzamido)phenyl dihydrogen phosphate] |  | weak activity | Hill coefficient [n] [2]: 1^a
22 | O=C(Nc1cccc(OP(=O)(O)O)c1)c1ccc(NCc2ccc(-c3cccc(F)c3)cc2)c(CC2CCCCC2)c1 [Compound 22l, 3-(3-(cyclohexylmethyl)-4-(((3’-fluoro-[1,1’-biphenyl]-4-yl)methyl)amino)benzamido)phenyl dihydrogen phosphate] | 1.7 ± 0.4 |  | 
23 | COC(=O)c1ccc(NCc2cccc(C(=O)O)c2)c(CCC2CCCCC2)c1 [Compound 17, 3-(((2-(2-cyclohexylethyl)-4-(methoxycarbonyl)phenyl)amino)methyl)benzoic acid] | 4.4 ± 0.4 |  | 
24 | COc1cc(OC)cc(-c2ccc(CNc3ccc(C(=O)Nc4cccc(OP(=O)(O)O)c4)cc3CC3CCCCC3)cc2)c1 [Compound 22j, 3-(3-(cyclohexylmethyl)-4-(((3’,5’-dimethoxy-[1,1’-biphenyl]-4-yl)methyl)amino)benzamido)phenyl dihydrogen phosphate] | 1.8 ± 0.1 |  | 
25 | O=C(Nc1cccc(Cl)c1)c1cccc(CNc2ccc(C(=O)Nc3cccc(OP(=O)(O)O)c3)cc2C2CC3CCC2C3)c1 (stereo not drawn) [Compound 40d, 3-(3-(bicyclo[2.2.1]heptan-2-yl)-4-((3-((3-chlorophenyl)carbamoyl)benzyl)amino)benzamido)phenyl dihydrogen phosphate] | 2.3 ± 0.4 |  | 
